Measured values: patent US9073954B2, “5-substituted benzimidazolium compounds” (Boehringer Ingelheim International GmbH, priority 2013, dated 2015)

Tests used:
[1] = Permeability in CALU-3 cells; assay type: in vitro ADME; settings: human, CALU-3 monolayers, 10 μM compound, pH 7.4, 37° C.; for Papp A→B at 90 min, 10 μM: apical-to-basal; for Papp B→A at 90 min, 10 μM: basal-to-apical
Method: Permeability in CALU-3 Cells:
Permeability measurements across polarized, confluent CALU-3 cell monolayers grown on permeable filter supports are used to provide information on the potential of a compound to pass the lung epithelium. Apparent permeability coefficients (Papp) of the compounds across the CALU-3 cell monolayers are measured (pH 7.4, 37° C.) in apical-to-basal (AB) and basal-toapical (BA) transport direction.
CALU-3 cells (1-2×10^5 cells/1 cm^2 area) are seeded on filter inserts (Costar transwell polycarbonate filters, 0.4 μm pore size) and cultured (for 10-12 days DMEM) until tight monolayers are formed. Compounds of interest are dissolved in appropriate solvent (DMSO, 10 mM stock solution). Stock solutions are diluted with HTP-4 buffer (128.13 mM NaCl, 5.36 mM KC, 1 mM MgSO4, 1.8 mM CaCl2, 4.17 mM NaHCO3, 1.19 mM Na2HPO4×7H2O, 0.41 mM NaH2PO4xH2O, 15 mM HEPES, 20 mM glucose, 0.25% BSA, pH 7.4) to prepare the transport solutions (10 μM compound, final DMSO<=0.5%). The transport solution (TL) is applied to the apical or basolateral donor side for measuring A-B or B-A permeability (3 filter replicates), respectively. The receiver side contains the same buffer as the donor side. After 30 min of accommodation, samples are collected at the start t0=0 min and at the end of the experiment tn=90 min from the donor and at 0, 30, 60, and 90 min also from the receiver chamber. Volume removed is replenished by HTP-4 buffer. The compound concentration in the samples is measured by HPLC-MS/MS or scintillation counting. The permeability coefficient (Papp) and efflux ratio are calculated according to: Papp [cm/s]=(concentration receiver [nM]*volume receiver [mL]/time interval [sec])*(1/filter area)*(1/donor concentration [nM])
With example compounds given above, the following permeability values were determined in the CALU-3 cells assay: […]

[2] = molecular target: T1, ENaC (Epithelial Sodium Channel) (Mus musculus, UniProt Q61180+Q9WU38+Q9WU39); experiment: Ussing chamber: short circuit current in M-1 cells; assay type: cell-based; settings: Ussing chamber, mouse kidney M-1 cells, amiloride sensitive I_SC, apical application, 37° C.; read-out: IC50
T1 construct: Mouse kidney M-1 cells were cultivated in DMEM; endogenous in cells; host or cells: mouse kidney M-1 cells
T1 sequence (Q61180 1-699): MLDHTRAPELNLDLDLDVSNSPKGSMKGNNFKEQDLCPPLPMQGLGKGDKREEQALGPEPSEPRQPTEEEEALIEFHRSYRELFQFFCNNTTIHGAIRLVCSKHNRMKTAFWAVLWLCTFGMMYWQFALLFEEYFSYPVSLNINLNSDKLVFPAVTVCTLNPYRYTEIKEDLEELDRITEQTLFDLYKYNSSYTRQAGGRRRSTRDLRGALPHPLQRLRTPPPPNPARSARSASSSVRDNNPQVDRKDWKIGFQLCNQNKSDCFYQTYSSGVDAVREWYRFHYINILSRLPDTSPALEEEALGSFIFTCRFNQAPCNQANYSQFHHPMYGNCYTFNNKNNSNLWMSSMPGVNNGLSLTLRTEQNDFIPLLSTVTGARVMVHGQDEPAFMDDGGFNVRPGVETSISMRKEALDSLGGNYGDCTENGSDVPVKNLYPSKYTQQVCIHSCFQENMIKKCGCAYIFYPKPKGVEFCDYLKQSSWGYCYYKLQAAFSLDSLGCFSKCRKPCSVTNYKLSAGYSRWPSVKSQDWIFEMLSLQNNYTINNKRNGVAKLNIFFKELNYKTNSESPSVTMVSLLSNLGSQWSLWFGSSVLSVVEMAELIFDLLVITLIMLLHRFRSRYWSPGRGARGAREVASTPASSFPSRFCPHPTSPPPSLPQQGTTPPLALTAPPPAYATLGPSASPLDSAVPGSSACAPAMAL
T1 sequence (Q9WU38 1-638): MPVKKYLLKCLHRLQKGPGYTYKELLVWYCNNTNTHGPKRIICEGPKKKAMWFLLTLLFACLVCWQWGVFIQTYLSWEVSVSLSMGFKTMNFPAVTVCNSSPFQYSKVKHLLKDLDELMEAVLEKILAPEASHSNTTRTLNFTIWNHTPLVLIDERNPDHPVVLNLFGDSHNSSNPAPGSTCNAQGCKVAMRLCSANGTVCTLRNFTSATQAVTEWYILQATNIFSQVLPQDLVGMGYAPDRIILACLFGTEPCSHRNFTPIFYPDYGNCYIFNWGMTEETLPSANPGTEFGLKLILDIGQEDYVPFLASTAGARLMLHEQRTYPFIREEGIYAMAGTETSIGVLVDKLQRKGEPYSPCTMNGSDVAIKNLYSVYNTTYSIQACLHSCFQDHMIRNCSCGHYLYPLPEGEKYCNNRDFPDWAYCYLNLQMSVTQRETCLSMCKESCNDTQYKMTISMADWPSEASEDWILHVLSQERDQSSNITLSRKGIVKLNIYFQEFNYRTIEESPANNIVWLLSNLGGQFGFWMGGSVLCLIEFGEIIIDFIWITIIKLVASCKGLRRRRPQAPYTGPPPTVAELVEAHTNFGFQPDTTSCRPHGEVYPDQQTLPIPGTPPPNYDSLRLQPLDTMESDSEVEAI
T1 sequence (Q9WU39 1-655): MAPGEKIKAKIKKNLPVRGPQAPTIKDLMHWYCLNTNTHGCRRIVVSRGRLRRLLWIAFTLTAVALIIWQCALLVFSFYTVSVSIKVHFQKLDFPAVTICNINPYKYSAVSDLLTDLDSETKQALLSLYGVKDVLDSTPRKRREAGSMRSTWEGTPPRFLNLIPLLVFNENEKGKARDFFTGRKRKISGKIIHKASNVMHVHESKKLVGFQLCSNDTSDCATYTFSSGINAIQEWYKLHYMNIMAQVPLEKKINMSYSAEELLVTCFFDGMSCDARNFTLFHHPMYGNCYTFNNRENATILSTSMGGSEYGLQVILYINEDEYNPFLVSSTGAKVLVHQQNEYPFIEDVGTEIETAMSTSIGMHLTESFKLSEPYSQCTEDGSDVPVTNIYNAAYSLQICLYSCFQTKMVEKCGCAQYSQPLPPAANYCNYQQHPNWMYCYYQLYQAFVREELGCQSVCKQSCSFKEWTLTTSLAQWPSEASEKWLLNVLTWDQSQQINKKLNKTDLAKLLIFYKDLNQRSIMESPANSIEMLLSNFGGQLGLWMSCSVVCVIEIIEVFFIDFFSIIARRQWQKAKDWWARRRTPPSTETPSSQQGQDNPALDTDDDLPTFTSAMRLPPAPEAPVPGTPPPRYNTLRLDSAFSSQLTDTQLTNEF
Method: Mouse kidney M-1 cells were cultivated in DMEM containing 5% FCS and 5 μM dexamethasone for 10 to 12 days on polyester transwell filters. Filters were inserted into a teflon-coated well-plate which fit into the ussing chamber system. Prior to measurement the medium of M-1 cells was replaced with Caco-2 transport buffer (Invitrogen, Germany). During measurements, the Ussing chamber temperature was kept at 37° C. Short circuit currents (I_sc) were measured in the voltage-clamp mode with the software package Lab View for data acquisition and analysis. The transepithelial electrical resistance (TEER) was determined by the application of voltage steps of ±5 mV every 5 sec. Compounds were administered at a final concentration of 3 μM or at increasing concentrations (1-3-10 μM) to the apical solution. At the end of each experiment the amiloride sensitive I_SC was measured by adding 3 μM amiloride to the apical compartment. Results are expressed as inhibition in percent of the amiloride effect or as IC50.
With the example compounds given above, the following IC50 values were determined in the Ussing Chamber assay: […]

SMILES | Papp A→B at 90 min, 10 μM [1] [×10⁻⁶ cm/s] | Papp B→A at 90 min, 10 μM [1] [×10⁻⁶ cm/s] | IC50 [2] [nM]
CCn1c(CNC(=O)c2nc(Cl)c(N)nc2N)[n+](C[C@H](C)O)c2cc(OCCN)ccc21 [Example 1.7] | 0.03 | 0.05 | 2
CCOP(=O)([O-])CCCOc1ccc2c(c1)n(CC)c(CNC(=O)c1nc(Br)c(N)nc1N)[n+]2CCOC [Example 2.1] | 0.2 | 0.08 | 16
CCn1c(CNC(=O)c2nc(Cl)c(N)nc2N)[n+](C)c2cc(Cl)c(OCCOCCOC)cc21 [Example 3.8] | 0.2 | 0.2 | 0.4
